In ChEMBL document CHEMBL3616371, “Synthesis of BF₃ catalyzed Mannich derivatives with excellent ee from phenylpropanolamine, study of their antimicrobial activity and molecular docking” (2015):
Values after ≈ are worked out from the molar mass of the structure shown.

Columns and labels:
Salmonella typhimurium [1] = assay: Antibacterial activity against Salmonella typhimurium assessed as growth inhibition at 1 mg/well after 24 hrs by Well method; type: functional, Salmonella enterica subsp. enterica serovar Typhimurium
Staphylococcus aureus [2] = assay: Antibacterial activity against Staphylococcus aureus assessed as growth inhibition at 1 mg/well after 24 hrs by Well method; type: functional
[3] = tested on: Staphylococcus epidermidis; assay: Antibacterial activity against Staphylococcus epidermidis after 24 hrs by two fold serial dilution method; type: functional
Micrococcus luteus [4] = assay: Antibacterial activity against Micrococcus luteus after 24 hrs by two fold serial dilution method; type: functional
Pseudomonas aeruginosa [5] = assay: Antibacterial activity against Pseudomonas aeruginosa after 24 hrs by two fold serial dilution method; type: functional
Klebsiella aerogenes [6] = assay: Antibacterial activity against Enterobacter aerogenes after 24 hrs by two fold serial dilution method; type: functional
Micrococcus luteus [7] = assay: Antibacterial activity against Micrococcus luteus assessed as growth inhibition at 1 mg/well after 24 hrs by Well method; type: functional
Pseudomonas aeruginosa [8] = assay: Antibacterial activity against Pseudomonas aeruginosa assessed as growth inhibition at 1 mg/well after 24 hrs by Well method; type: functional
Klebsiella pneumoniae [9] = assay: Antibacterial activity against Klebsiella pneumoniae assessed as growth inhibition at 1 mg/well after 24 hrs by Well method; type: functional
Staphylococcus aureus [10] = assay: Antibacterial activity against Staphylococcus aureus after 24 hrs by two fold serial dilution method; type: functional
Staphylococcus aureus [11] = assay: Antibacterial activity against methicillin-resistant Staphylococcus aureus after 24 hrs by two fold serial dilution method; type: functional
Salmonella typhimurium [12] = assay: Antibacterial activity against Salmonella typhimurium after 24 hrs by two fold serial dilution method; type: functional, Salmonella enterica subsp. enterica serovar Typhimurium; conditions: Salmonella enterica
Shigella flexneri [13] = assay: Antibacterial activity against Shigella flexneri after 24 hrs by two fold serial dilution method; type: functional
Aspergillus flavus [14] = assay: Antifungal activity against Aspergillus flavus assessed as growth inhibition at 1 mg/well after 48 hrs by Well method; type: functional
Staphylococcus aureus [15] = assay: Antibacterial activity against methicillin-resistant Staphylococcus aureus assessed as growth inhibition at 1 mg/well after 24 hrs by Well method; type: functional
Proteus vulgaris [16] = assay: Antibacterial activity against Proteus vulgaris after 24 hrs by two fold serial dilution method; type: functional
Bacillus subtilis [17] = assay: Antibacterial activity against Bacillus subtilis after 24 hrs by two fold serial dilution method; type: functional
Bacillus subtilis [18] = assay: Antibacterial activity against Bacillus subtilis assessed as growth inhibition at 1 mg/well after 24 hrs by Well method; type: functional
Proteus vulgaris [19] = assay: Antibacterial activity against Proteus vulgaris assessed as growth inhibition at 1 mg/well after 24 hrs by Well method; type: functional
Klebsiella aerogenes [20] = assay: Antibacterial activity against Enterobacter aerogenes assessed as growth inhibition at 1 mg/well after 24 hrs by Well method; type: functional
Aspergillus flavus [21] = assay: Antifungal activity against Aspergillus flavus after 48 to 72 hrs by two fold serial dilution method; type: functional
Shigella flexneri [22] = assay: Antibacterial activity against Shigella flexneri assessed as growth inhibition at 1 mg/well after 24 hrs by Well method; type: functional
[23] = tested on: Staphylococcus epidermidis; assay: Antibacterial activity against Staphylococcus epidermidis assessed as growth inhibition at 1 mg/well after 24 hrs by Well method; type: functional
Klebsiella pneumoniae [24] = assay: Antibacterial activity against Klebsiella pneumoniae after 24 hrs by two fold serial dilution method; type: functional
Malassezia pachydermatis [25] = assay: Antifungal activity against Malassezia pachydermatis after 48 to 72 hrs by two fold serial dilution method; type: functional
Candida albicans [26] = assay: Antifungal activity against Candida albicans after 48 to 72 hrs by two fold serial dilution method; type: functional
Malassezia pachydermatis [27] = assay: Antifungal activity against Malassezia pachydermatis assessed as growth inhibition at 1 mg/well after 48 hrs by Well method; type: functional
Candida albicans [28] = assay: Antifungal activity against Candida albicans assessed as growth inhibition at 1 mg/well after 48 hrs by Well method; type: functional
[29] = tested on: Salmonella enterica subsp. enterica serovar Paratyphi B; assay: Antibacterial activity against Salmonella paratyphi B assessed as growth inhibition at 1 mg/well after 24 hrs by Well method; type: functional

SMILES	inhibition zone (IZ) (Salmonella typhimurium [1]) [mm]	inhibition zone (IZ) (Staphylococcus aureus [2]) [mm]	MIC [3] [µg/mL]	MIC (Micrococcus luteus [4]) [µg/mL]	MIC (Pseudomonas aeruginosa [5]) [µg/mL]	MIC (Klebsiella aerogenes [6]) [µg/mL]	inhibition zone (IZ) (Micrococcus luteus [7]) [mm]	inhibition zone (IZ) (Pseudomonas aeruginosa [8]) [mm]	MIC (Staphylococcus aureus [10]) [µg/mL]	MIC (Staphylococcus aureus [11]) [µg/mL]	MIC (Salmonella typhimurium [12]) [µg/mL]	MIC (Shigella flexneri [13]) [µg/mL]	inhibition zone (IZ) (Staphylococcus aureus [15]) [mm]	MIC (Proteus vulgaris [16]) [µg/mL]	MIC (Bacillus subtilis [17]) [µg/mL]	inhibition zone (IZ) (Bacillus subtilis [18]) [mm]	inhibition zone (IZ) (Proteus vulgaris [19]) [mm]	inhibition zone (IZ) (Klebsiella aerogenes [20]) [mm]	inhibition zone (IZ) (Shigella flexneri [22]) [mm]	inhibition zone (IZ) [23] [mm]	other results
Cc1ccc(C(=O)CCN[C@@H](C)[C@H](O)c2ccccc2)cc1.Cl	23	22	3.13	3.13	3.13	3.13	22	20	3.13	3.13	3.13	3.13	23	3.13	6.25	18	24	24	22	24	inhibition zone (IZ) (Klebsiella pneumoniae [9]): 13 mm; inhibition zone (IZ) (Aspergillus flavus [14]): 22 mm; MIC (Aspergillus flavus [21]): 50 µg/mL
Cc1ccc(C(=O)CCN[C@H](C)[C@@H](O)c2ccccc2)cc1.Cl	25	24	3.13	25	12.5	12.5	22	23	25	6.25	12.5	50	28	6.25	12.5	22	28	27	20	31	inhibition zone (IZ) (Klebsiella pneumoniae [9]): 15 mm; MIC (Klebsiella pneumoniae [24]): 50 µg/mL; inhibition zone (IZ) (Aspergillus flavus [14]): 20 mm; MIC (Aspergillus flavus [21]): 50 µg/mL
C[C@H](NCCC(=O)c1ccccc1)[C@H](O)c1ccccc1.Cl	26	27	3.13	6.25	25	6.25	30	20	12.5	12.5	12.5	50	27	12.5	25	18	25	28	20	34	MIC (Malassezia pachydermatis [25]): > 50 µg/mL; inhibition zone (IZ) (Klebsiella pneumoniae [9]): 21 mm; MIC (Klebsiella pneumoniae [24]): 25 µg/mL; MIC (Candida albicans [26]): 50 µg/mL; inhibition zone (IZ) (Malassezia pachydermatis [27]): 12 mm; inhibition zone (IZ) (Candida albicans [28]): 16 mm
C[C@@H](NCCC(=O)c1ccccc1)[C@@H](O)c1ccccc1.Cl	22	22	12.5	12.5	12.5	50	28	22	25	6.25	25	25	28	25	25	20	24	20	22	26	MIC (Malassezia pachydermatis [25]): 50 µg/mL; inhibition zone (IZ) (Klebsiella pneumoniae [9]): 19 mm; MIC (Klebsiella pneumoniae [24]): 50 µg/mL; MIC (Candida albicans [26]): 50 µg/mL; inhibition zone (IZ) (Malassezia pachydermatis [27]): 14 mm; inhibition zone (IZ) (Candida albicans [28]): 15 mm
C[C@@H](NCCC(=O)c1ccc(Cl)cc1)[C@@H](O)c1ccccc1.Cl	30	36	3.13	6.25	12.5	3.13	29	23	3.13	3.13	6.25	6.25	33	3.13	12.5	24	32	34	30	36	MIC (Malassezia pachydermatis [25]): 50 µg/mL; inhibition zone (IZ) (Klebsiella pneumoniae [9]): 18 mm; MIC (Klebsiella pneumoniae [24]): 50 µg/mL; MIC (Candida albicans [26]): 12.5 µg/mL; inhibition zone (IZ) (Malassezia pachydermatis [27]): 15 mm; inhibition zone (IZ) (Candida albicans [28]): 24 mm
C[C@@H](NCCC(=O)c1cccc([N+](=O)[O-])c1)[C@@H](O)c1ccccc1.Cl	18	14	50	50	50	50	18	17	50	50	50	50	16	50	25	18	20	17	19	18	MIC (Malassezia pachydermatis [25]): 25 µg/mL; MIC (Candida albicans [26]): 50 µg/mL; inhibition zone (IZ) (Malassezia pachydermatis [27]): 21 mm; inhibition zone (IZ) (Candida albicans [28]): 15 mm
CC(=O)N1CCN(c2ccc(OCC3COC(Cn4ccnc4)(c4ccc(Cl)cc4Cl)O3)cc2)CC1 (stereo unspecified) [KETOCONAZOLE]	–	–	–	–	–	–	–	–	–	–	–	–	–	–	–	–	–	–	–	–	MIC (Malassezia pachydermatis [25]): 25 µg/mL (≈ 47 µM); inhibition zone (IZ) (Aspergillus flavus [14]): 24 mm; MIC (Candida albicans [26]): 25 µg/mL (≈ 47 µM); inhibition zone (IZ) (Malassezia pachydermatis [27]): 26 mm; MIC (Aspergillus flavus [21]): < 12.5 µg/mL; inhibition zone (IZ) (Candida albicans [28]): 28 mm
COc1ccc(C(=O)CCN[C@H](C)[C@@H](O)c2ccccc2)cc1.Cl	18	20	6.25	12.5	25	12.5	19	18	12.5	6.25	25	25	22	12.5	25	22	22	19	24	24	MIC (Malassezia pachydermatis [25]): > 50 µg/mL; inhibition zone (IZ) (Klebsiella pneumoniae [9]): 16 mm; MIC (Klebsiella pneumoniae [24]): > 50 µg/mL; inhibition zone (IZ) (Aspergillus flavus [14]): 16 mm; inhibition zone (IZ) [29]: 14 mm; MIC (Aspergillus flavus [21]): 50 µg/mL
